pKd: −log10 of the molar value.
Columns and labels:
[1] = molecular target: GHR pY595 peptide (Homo sapiens) (UniProt P10912); settings: cited from earlier work
SBC2 [2] = molecular target: T1, SBC2 (Homo sapiens, UniProt O14508); experiment: Isothermal titration calorimetry (ITC), direct titration; assay type: binding; settings: for pKd: ITC KD, direct ITC, 298 K
T1 construct: SOCS2 (amino acids 32–198); His6 (N, cleaved yes); made in house; host or cells: E. coli BL21(DE3)
Description: Experiments were performed with ITC200 instrument (Malvern) in 100 mM HEPES pH 7.5, 50 mM NaCl, 0.5 mM TCEP at 298 K. The ITC titration consisted of 0.4 μl initial injection (discarded during data analysis) followed by 19 of 2 μl injections at 120 s interval between injections. 1 mM of the ligands in 2–4% DMSO were titrated into 100 μM SBC2. […] Binding data was subtracted from a control titration where ligand was titrated into buffer, and fitted using a one-set-of-site binding model to obtain dissociation constant (Kd), binding enthalpy (ΔH), and stoichiometry (N) using MicroCal PEAQ-ITC Analysis Software1.1.0.1262 and MicroCal ITC-ORIGIN Analysis Software 7.0 (Malvern).

SBC2 [3] = molecular target: T1, SBC2; experiment: Surface plasmon resonance (SPR) with SBC2 immobilized on the chip; assay type: binding; settings: for improvement of binding affinity compared to 5: SPR
Source text: (§1) First, we decided to optimize the N-terminal region of 1 while maintaining the N-methylamide group at the C-terminus. To generate analogs rapidly, we employed a solid phase synthesis using methyl indole AM resin. After Fmoc deprotection, the resin was loaded with Fmoc-Tyr (PO(OBzl)2)-OH[29]. Subsequent coupling with various commercially available carboxylic acids and cleavage with TFA allowed the rapid synthesis of N-methylcarboxamide phosphotyrosines (Supplementary Fig. 1). We introduced different substituents at the N-terminus to cover a range of physicochemical properties (e.g. alicyclic, heterocyclic, aromatic with electron-withdrawing and electron-donating groups) to maximize potential interactions (see Table 1 for representative examples). Binding affinities of the synthesized compounds for SOCS2 were measured via two orthogonal biophysical binding assays: (1) surface plasmon resonance (SPR) with SBC2 immobilized on the chip (Supplementary Fig. 7); and (2) ^19F ligand-observed displacement NMR assays, providing two orthogonal biophysical measurements of dissociation constants (KD)[29],[31]. We found an excellent correlation between the KD values measured via the two techniques (Table 1). Para-substituted benzyl moieties yielded the greatest contributions to binding affinity and there were only slight differences between electron-withdrawing groups such as a methyl ester and electron-donating such as methoxy group.
SPR experiments were performed using a Biacore S200 instrument (GE Healthcare) in 20 mM HEPES pH 7.5, 150 mM NaCl, 1 mM TCEP, 0.005% Tween20, 2% DMSO buffer at 10 °C. Biotinylated SBC2 was immobilized onto a chip surface (the final surface density of biotinylated SBC2 was ~3000–4000 RU). AviTagged-SBC was biotinylated using BirA enzyme as per manufacturer’s protocol (Avidity). Compounds were serially diluted in the running buffer and injected individually: contact time 60 s, flow rate 30 μL/min, dissociation time 150 s, using a stabilization period of 30 s and syringe wash (50% DMSO) between injections. Data analysis was carried out using Biacore Evaluation Software (GE Healthcare). All data were double-referenced for reference surface and blank injection. The processed sensograms were fit to a steady-state affinity using a 1:1 binding model for KD estimation.

SBC2 [4] = molecular target: T1, SBC2; experiment: 19F ligand-observed displacement (CPMG) NMR assay; assay type: binding; settings: Table 1, n = 1
Source text: as §1, with “We introduced different substituents at the N-terminus to cover a range of physicochemical properties (e.g. alicyclic, heterocyclic, aromatic with electron-withdrawing and electron-donating groups) to maximize potential interactions (see Table 1 for representative examples).” left out, “Para-substituted benzyl moieties yielded the greatest contributions to binding affinity and there were only slight differences between electron-withdrawing groups such as a methyl ester and electron-donating such as methoxy group.” left out
Experiments were performed using an Avance III 500 MHz Bruker spectrometer equipped with a 5 mm CPQCI 1H/19 F/13 C/15 N/D Z-GRD cryoprobe at 298 K as described previously. Spectra were recorded using 80 scans of a CPMG pulse sequence that attenuates broad resonances. […] All NMR data were processed and analyzed using TopSpin (Bruker). The dissociation constant was calculated as described previously.

[5] = Table 2, second-round library, n = 1

T1 sequence (O14508 32-198): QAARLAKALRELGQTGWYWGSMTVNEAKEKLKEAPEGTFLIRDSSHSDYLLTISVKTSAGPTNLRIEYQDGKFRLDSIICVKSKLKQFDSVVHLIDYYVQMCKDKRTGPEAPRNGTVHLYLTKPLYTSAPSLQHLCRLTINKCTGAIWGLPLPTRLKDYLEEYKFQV
T1 sequence (Q15370 1-104 partner limits assumed): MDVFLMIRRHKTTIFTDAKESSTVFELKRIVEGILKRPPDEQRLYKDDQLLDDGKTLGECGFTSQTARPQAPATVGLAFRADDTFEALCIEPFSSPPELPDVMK
T1 sequence (Q15369 17-112 partner limits assumed): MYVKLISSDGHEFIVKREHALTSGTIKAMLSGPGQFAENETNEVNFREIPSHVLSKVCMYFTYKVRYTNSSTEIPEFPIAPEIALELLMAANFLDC
Sequence of SOCS2 SH2 (O14508 45-159): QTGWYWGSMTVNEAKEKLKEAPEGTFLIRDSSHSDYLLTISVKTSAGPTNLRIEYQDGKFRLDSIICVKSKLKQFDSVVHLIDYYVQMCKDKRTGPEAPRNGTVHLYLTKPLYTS
Sequence of GHR pY595 peptide (Homo sapiens) (P10912 whole entry, looked up, tested part not stated): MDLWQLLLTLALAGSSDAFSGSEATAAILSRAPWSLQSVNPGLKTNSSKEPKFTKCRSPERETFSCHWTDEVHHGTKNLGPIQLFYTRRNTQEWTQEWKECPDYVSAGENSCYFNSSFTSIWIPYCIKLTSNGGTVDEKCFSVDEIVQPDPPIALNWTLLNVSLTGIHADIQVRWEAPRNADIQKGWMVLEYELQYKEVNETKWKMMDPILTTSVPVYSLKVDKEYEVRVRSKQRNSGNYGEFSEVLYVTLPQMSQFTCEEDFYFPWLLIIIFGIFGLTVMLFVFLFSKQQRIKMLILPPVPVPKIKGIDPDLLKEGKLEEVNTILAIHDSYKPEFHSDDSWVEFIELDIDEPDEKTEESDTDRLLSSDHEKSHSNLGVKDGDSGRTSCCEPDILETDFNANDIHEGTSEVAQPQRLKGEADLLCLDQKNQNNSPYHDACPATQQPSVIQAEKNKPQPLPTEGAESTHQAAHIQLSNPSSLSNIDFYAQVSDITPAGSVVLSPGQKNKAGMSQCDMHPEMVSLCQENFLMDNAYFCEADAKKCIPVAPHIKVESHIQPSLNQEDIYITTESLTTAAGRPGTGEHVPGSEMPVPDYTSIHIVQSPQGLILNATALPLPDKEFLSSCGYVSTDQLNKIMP

Molecule	pKd [1]	ITC ΔG (SBC2 [2]) [kcal/mol]	ITC −TΔS (SBC2 [2]) [kcal/mol]	pKd (SBC2 [2])	improvement of binding affinity compared to 5 (SBC2 [3]) [fold]	pKd (SBC2 [3]; [5])	pKd (SBC2 [3]; Table 1, n = 1)	pKd (SBC2 [4])	weaker binding than the full phosphorylated peptide (SBC2 [2]) [fold]
SOCS2 SH2 (from UniProt O14508)	5.96								
Cc1cccc(CNC(=O)[C@H](Cc2ccc(OP(=O)(O)O)cc2)NC(=O)Cc2ccc(F)cc2)c1 [Compound 10, (S)-4-(2-(2-(4-fluorophenyl)acetamido)-3-((3-methylbenzyl)amino)-3-oxopropyl)phenyl phosphate]		-8.12	-2.31	5.96	10	5.43			
O=C(Cc1ccc(F)cc1)N[C@@H](Cc1ccc(OP(=O)(O)O)cc1)C(=O)NCc1ccc(F)cc1 [Compound 9, (S)-4-(3-((4-fluorobenzyl)amino)-2-(2-(4-fluorophenyl)acetamido)-3-oxopropyl)phenyl phosphate]		-7.65	-3.55	5.59	10	5.38			
CNC(=O)[C@H](Cc1ccc(OP(=O)(O)O)cc1)NC(=O)Cc1ccc(F)cc1 [Compound 5]							4.31	4.49	
CNC(=O)[C@H](Cc1ccc(OP(=O)(O)O)cc1)NC(C)=O [Compound 1]				3.72			3.57	3.73	100
